# Assay results taken from patent US11446265B2, “Reagents, compositions and methods for improving viability and function of cells, tissues and organs” (TARGA BIOMEDICAL, priority 2016, dated 2022).
# Columns and labels:
# [1] = test system: human mesenchymal stem cells (hMSCs); experiment: VEGFa protein secreted by hMSC into culture medium; type: cell-based; settings: 1-hour treatment combined with Celastrol; for VEGF protein after 48 hours in hypoxic condition: compared with normal culture; for VEGF protein after 48 hours in normal culture: normoxic
# H9c2 cardiomyoblasts [2] = experiment: HO-1 and VEGFa mRNA in H9c2 cardiomyoblasts by real-time PCR; type: cell-based, rat; settings: H9c2, 1-hour with Celastrol plus adjunct, 3 hour washout in normoxic or hypoxic condition
# From the text: Results are expressed as fold change versus Vehicle-treated h9c2.
# [3] = test system: human mesenchymal stem cells (hMSC); experiment: mRNA expression in hMSC by real-time PCR; type: cell-based
# From the text: FIG. 25A is a table representing mRNA expression of selected genes measured by real-time PCR in human mesenchymal stem cells (hMSC) conditioned with Celastrol alone or in combination with selected adjunct agents. Results are expressed as fold change versus Vehicle-treated cells.
# FIG. 25B is a table representing mRNA expression of selected genes measured by real-time PCR in human mesenchymal stem cells (hMSC) conditioned with selected Celastrol analogs alone or in combination with selected adjunct agents. Results are expressed as fold change versus Vehicle-treated cells.
# Results are expressed as fold change versus Vehicle-treated cells. (Arbitrary angiogenic index: (VEGFa+FGF2+SDF1)*2) (A=Additive effect; S=Synergistic effect).
# (§1) To test the second main condition, MSCs were treated with the candidate pharmaco-optimizers for 1 hour, followed by 3 hours washout period. Cell mRNA was extracted and expression of genes of interest was quantified by real time PCR. In additional MSC cultures, cells were treated for one hour, washed and cultured in low serum media for 24 hours. The media containing paracrine factors secreted by MSCs was then placed in contact with H9c2 cardiomyoblast cell line. H9c2 cells were then submitted to the hypoxia/serum starvation (<1% O2 in hypoxia chamber in low serum media for 48 hours) or oxidative stress (incubation in media for 1 hour spiked with 0-1 mM H2O2). Viability status of H9c2 cells was evaluated using the LIVE/DEAD assay as detailed above.
# H9c2 cardiomyoblasts [4] = experiment: H9c2 viability after oxidative challenge, direct treatment with Celastrol combinations; type: cell-based, rat; settings: 1-hour treatment combined with Celastrol; 1 mM H2O2 for 1 hour
# H9c2 cardiomyoblasts [5] = experiment: H9c2 viability under hypoxia/serum starvation (LIVE/DEAD); type: cell-based, rat; settings: 1 uM
# Description: For survival to hypoxic challenge and oxidative challenge, H9c2 cardiomyoblasts are submitted to the hypoxia/serum starvation (<1% O2 in hypoxia chamber in low serum media for 48 hours) or oxidative stress (incubation in media for 1 hour spiked with 0-1 mM H2O2). Viability status of H9c2 cells was evaluated using the LIVE/DEAD assay.
# H9c2 cardiomyoblasts [6] = experiment: H9c2 viability under hypoxia/reoxygenation stress; type: cell-based, rat; settings: 1 uM
# Description: Next, the hypoxia/reoxygenation challenge is performed. Briefly, viability analysis was performed in rat H9c2 cardiomyoblasts as previously reported. For hypoxia/reoxygenation stress, cells were cultured in DMEM no glucose (Life Technologies), serum starved and placed in hypoxic conditions (<1% O2) for 18 h. At reoxygenation (normoxic conditions), cells were treated with Celastrol (10^−10 to 10^−6 mol/L, Cayman Chemical, Ann Arbor, Mich.), Celastrol analogs or vehicle (Dimethyl sulfoxide (DMSO), Sigma-Aldrich Canada, Oakville, ON; final concentration<1% v/v) in DMEM high glucose 1% FBS for 1 h, then reoxygenation was continued in DMEM high glucose for an additional 5 h.
# [7] = test system: human mesenchymal stem cells (hMSC); experiment: Proteomic analysis (mass spectrometry) of conditioned media of treated hMSC; type: cell-based; settings: one hour Celastrol 10^−6 M
# Description: Conditioned cell media was collected, concentrated, proteins were separated by gel electrophoresis and analyzed by mass spectrometry and identified through database search.
# Briefly, rat MSCs were treated in suspension with conditioning compounds for 60 minutes. Cells were then washed, labeled with fluorescent cell tracker and injected at t=0 in rat left ischemic hindlimb. Transplanted cells were imaged in vivo until day 9 using Optix™ MX3 Molecular Imaging System from ART (FIG. 2: A,B).
# [8] = test system: rat mesenchymal stem cells (rMSC); experiment: rMSC viability after oxidative stress (H2O2, LIVE/DEAD); type: cell-based; settings: 1-hour treatment
# Description: (§2) To test the first main condition, MSCs (either sourced from rat or humans) were treated with the candidate pharmaco-optimizers, washed and submitted to hypoxia/serum starvation (<1% O2 in hypoxia chamber in low serum media for 48-72 hours) or oxidative stress (incubation in media for 1 hour spiked with 0-2 mM H2O2), which mimic the major lethal stressors present in the ischemic transplant microenvironment. Viability status of cells are assessed using the LIVE/DEAD viability/cytotoxicity kit (Life Technologies™) and results are quantified by Operetta high content screening (HCS) apparatus equipped with Harmony automated analysis software (Perkin Elmer™).
# H9c2 cells = experiment: H9c2 viability in oxidative stress after pre-conditioning with media from treated rMSC (paracrine); type: cell-based, rat; settings: 24-hour preconditioning with media from treated rMSC
# Description: as §1
# [9] = test system: rat mesenchymal stem cells (rMSC); experiment: mRNA expression in rMSC by real time PCR; type: cell-based; settings: for effect on Celastrol-induced Catalase (CAT) mRNA expression / effect on Celastrol-induced FGF2 mRNA expression / effect on Celastrol-induced Glutathione peroxidase (GPx) mRNA expression / effect on Celastrol-induced Glutathione reductase (GR) mRNA expression / effect on Celastrol-induced HSP32 (HO-1) mRNA expression / effect on Celastrol-induced HSP70 mRNA expression / effect on Celastrol-induced Superoxide dismutase 1 (SOD1) mRNA expression / effect on Celastrol-induced VEGFα mRNA expression / effect on Celastrol-induced downregulation of TNFα mRNA / effect on Celastrol-induced HSP70 expression in two other rMSC cell lines: combined with Celastrol
# Description: as §1
# Combination Treatments Tested—First Experiment: Celastrol (1 μM) or Gedunin (1 μM)+EGCG (1 μM, 10 μM) or TBHQ (1 μM, 5 μM)
# [10] = test system: rat mesenchymal stem cells (rMSC); experiment: rMSC viability after hypoxia/serum starvation (LIVE/DEAD); type: cell-based; settings: 1-hour treatment; for protection of rMSCs from 48-hour hypoxia induced cell death: compound alone
# Description: as §2
# [11] = 1-hour treatment and 3-hour washout, combined with Celastrol
# [12] = rMSC, 1-hour treatment and 3-hour washout
# [13] = rMSC, 1-hour treatment and 3-hour washout, combined with Gedunin
smiles,measurement,setting,value
"O=C(C=Cc1ccccc1O)C=Cc1ccccc1O [Analog 2HBA, Bis(2-hydroxybenzylidene)acetone]",VEGF protein after 48 hours in hypoxic condition,[1],even greater expression of VEGF protein
same,VEGF protein after 48 hours in normal culture,[1],additive to synergistic increase in VEGF protein
same,mRNA expression of HO-1,H9c2 cardiomyoblasts [2],increased mRNA expression
same,mRNA expression of VEGFa,H9c2 cardiomyoblasts [2],increased mRNA expression
same,ranking as adjunct agent in combination with Celastrol or Celastrol analogs (gene expression),"[3]; FIGS. 25A, 25B, 26A to 26D",among top adjunct agents
same,viability of H9c2 cells following oxidative challenge,H9c2 cardiomyoblasts [4],synergistic increase in viability
Cc1c(O)c(O)cc2c1[C@H](C[N+](=O)[O-])C=C1[C@@]2(C)CC[C@@]2(C)[C@@H]3C[C@](C)(C(=O)O)CC[C@]3(C)CC[C@]12C [Analog 2],protection of H9c2 cardiomyoblasts from hypoxia,H9c2 cardiomyoblasts [5],effective
same,protection of H9c2 cardiomyoblasts from hypoxia/reoxygenation stress,H9c2 cardiomyoblasts [6],effective
CC(C)c1cc2c(c(O)c1O)[C@@]13CCCC(C)(C)[C@@H]1C[C@@H]2OC3=O [Carnosol],ranking as adjunct agent in combination with Celastrol or Celastrol analogs (gene expression),"[3]; FIGS. 25A, 25B, 26A to 26D",among top adjunct agents
CC1=C(O)C(=O)C=C2C1=CC=C1[C@@]2(C)CC[C@@]2(C)[C@@H]3C[C@](C)(C(=O)O)CC[C@]3(C)CC[C@]12C [Celastrol],increased level of CAT in the culture media,[7],"1,7 fold"
same,increased level of GSH in the culture media,[7],"2,8 fold"
same,increased level of HGF in the culture media,[7],"2,1 fold"
same,increased level of HO1 in the culture media,[7],"2,2 fold"
same,increased level of HSP70 in the culture media,[7],"1,8 fold"
same,increased level of HSP90a in the culture media,[7],"7,0 fold"
same,increased level of HSP90b in the culture media,[7],"2,2 fold"
same,increased level of MCSF in the culture media,[7],"24,4 fold"
same,increased level of TRX in the culture media,[7],"2,5 fold"
COc1cc(/C=C/C(=O)CC(=O)/C=C/c2ccc(O)c(OC)c2)ccc1O [Curcumin],VEGF protein after 48 hours in hypoxic condition,[1],even greater expression of VEGF protein
same,VEGF protein after 48 hours in normal culture,[1],additive to synergistic increase in VEGF protein
same,ranking as adjunct agent in combination with Celastrol or Celastrol analogs (gene expression),"[3]; FIGS. 25A, 25B, 26A to 26D",among top adjunct agents
"Cc1c(O)c(O)cc2c1CC=C1[C@@]2(C)CC[C@@]2(C)[C@@H]3C[C@](C)(C(=O)O)CC[C@]3(C)CC[C@]12C [Dihydrocelastrol, dihydrocelastrol]","ranking as HSP90 inhibitor from expression of HSPs, growth factors, antioxidant proteins/enzymes, cytokines, matrix remodeling proteins","[3]; FIGS. 25A, 25B, 26A to 26D",best HSP90 inhibitors
"O=C(O[C@@H]1Cc2c(O)cc(O)cc2O[C@@H]1c1cc(O)c(O)c(O)c1)c1cc(O)c(O)c(O)c1 [EGCG, epigallocatechin gallate]",effect on Celastrol-induced protection of rMSCs from oxidative stress induced death,[8]; combined with Celastrol,potentiates Celastrol-induced protection
same,protection of rMSCs from oxidative stress induced death,[8]; compound alone,protect
same,protection of H9c2 cells from oxidative stress induced death (paracrine),H9c2 cells,protects
same,VEGF protein after 48 hours in hypoxic condition,[1],even greater expression of VEGF protein
same,VEGF protein after 48 hours in normal culture,[1],additive to synergistic increase in VEGF protein
same,mRNA expression of HO-1,H9c2 cardiomyoblasts [2],increased mRNA expression
same,mRNA expression of VEGFa,H9c2 cardiomyoblasts [2],increased mRNA expression
same,effect on Celastrol-induced HSP32 (HO-1) mRNA expression in human MSC,[3]; [11],synergistic increase
same,effect on Celastrol-induced HSP70 mRNA expression in human MSC,[3]; [11],synergistic increase
same,ranking as adjunct agent in combination with Celastrol or Celastrol analogs (gene expression),"[3]; FIGS. 25A, 25B, 26A to 26D",among top adjunct agents
same,effect on Celastrol-induced Catalase (CAT) mRNA expression,[9]; [12],synergistic increase
same,effect on Celastrol-induced FGF2 mRNA expression,[9]; [12],synergistic increase
same,effect on Celastrol-induced Glutathione peroxidase (GPx) mRNA expression,[9]; [12],synergistic increase
same,effect on Celastrol-induced Glutathione reductase (GR) mRNA expression,[9]; [12],synergistic increase
same,effect on Celastrol-induced HSP32 (HO-1) mRNA expression,[9]; [12],synergistic increase
same,effect on Celastrol-induced HSP70 mRNA expression,[9]; [12],synergistic increase
same,effect on Celastrol-induced Superoxide dismutase 1 (SOD1) mRNA expression,[9]; [12],synergistic increase
same,effect on Celastrol-induced VEGFα mRNA expression,[9]; [12],synergistic increase
same,effect on Celastrol-induced downregulation of TNFα mRNA,[9]; [12],synergistically accentuate
same,effect on Gedunin-induced downregulation of TNFα mRNA,[9]; [13],synergistically accentuate
same,effect on Celastrol-induced HSP70 expression in two other rMSC cell lines,[9],synergistic increase
same,effect on Celastrol-mediated protection of rMSCs from hypoxia induced cell death,[10]; combined with Celastrol,potentiates Celastrol-mediated protection
same,protection of rMSCs from 48-hour hypoxia induced cell death,[10],not
same,viability of H9c2 cells following oxidative challenge,H9c2 cardiomyoblasts [4],synergistic increase in viability
"CC(C)(C)c1cc(O)ccc1O [tBHQ, tert-Butylhydroquinone]",protection of H9c2 cells from oxidative stress induced death (paracrine),H9c2 cells,protects
same,VEGF protein after 48 hours in hypoxic condition,[1],even greater expression of VEGF protein
same,VEGF protein after 48 hours in normal culture,[1],additive to synergistic increase in VEGF protein
same,ranking as adjunct agent in combination with Celastrol or Celastrol analogs (gene expression),"[3]; FIGS. 25A, 25B, 26A to 26D",among top adjunct agents
same,effect on Celastrol-induced Catalase (CAT) mRNA expression,[9]; [12],synergistic increase
same,effect on Celastrol-induced FGF2 mRNA expression,[9]; [12],synergistic increase
same,effect on Celastrol-induced Glutathione peroxidase (GPx) mRNA expression,[9]; [12],synergistic increase
same,effect on Celastrol-induced Glutathione reductase (GR) mRNA expression,[9]; [12],synergistic effect only at low dose
same,effect on Celastrol-induced HSP32 (HO-1) mRNA expression,[9]; [12],synergistic increase
same,effect on Celastrol-induced HSP70 mRNA expression,[9]; [12],synergistic increase
same,effect on Celastrol-induced Superoxide dismutase 1 (SOD1) mRNA expression,[9]; [12],no effect
same,effect on Celastrol-induced VEGFα mRNA expression,[9]; [12],decreases
same,effect on Celastrol-induced downregulation of TNFα mRNA,[9]; [12],synergistically accentuate
same,"FGF2 mRNA expression, combination with Gedunin",[9]; [13],increased
same,effect on Gedunin-induced downregulation of TNFα mRNA,[9]; [13],synergistically accentuate
same,effect on Gedunin expression of VEGF,"[9]; rMSC, combined with Gedunin",decreases
same,effect on Celastrol-induced HSP70 expression in two other rMSC cell lines,[9],no effect
same,protection of rMSCs from 48-hour hypoxia induced cell death,[10],not
same,viability of H9c2 cells following oxidative challenge,H9c2 cardiomyoblasts [4],synergistic increase in viability
